Results published in the supplement of paper PMC11451515.

System: SEM cells
Assay: cell viability relative to DMSO control; higher = less cytotoxic
Settings: 48 h
In short: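 Viability, reported as a per-plate percentage of DMSO wells with cell-free wells as background, came from CellTiter-Glo One luminescence. Reading took place after 48 h at 37°C. Before that, NOMO1 or SEM (500 cells/well) or P12-Ichikawa (1000 cells/well) leukemia cells, adapted for at least four passages in each medium, were seeded in 1536-well plates (5 μl) and pin-dosed with library compounds in DMSO, 47 μM to 0.79 nM over 11 threefold points.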

[1] = HPLM + 10% dialyzed FBS, 0.000781 µM
[2] = HPLM + 10% dialyzed FBS, 0.00234 µM
[3] = HPLM + 10% dialyzed FBS, 0.00702 µM
[4] = HPLM + 10% dialyzed FBS, 0.0211 µM
[5] = HPLM + 10% dialyzed FBS, 0.0632 µM
[6] = HPLM + 10% dialyzed FBS, 0.19 µM
[7] = HPLM + 10% dialyzed FBS, 0.569 µM
[8] = HPLM + 10% dialyzed FBS, 1.71 µM
[9] = HPLM + 10% dialyzed FBS, 5.12 µM
[10] = HPLM + 10% dialyzed FBS, 15.4 µM
[11] = HPLM + 10% dialyzed FBS, 46.1 µM
[12] = RPMI 5 mM glucose + 10% FBS, 0.000781 µM
[13] = RPMI 5 mM glucose + 10% FBS, 0.00234 µM
[14] = RPMI 5 mM glucose + 10% FBS, 0.00702 µM
[15] = RPMI 5 mM glucose + 10% FBS, 0.0211 µM
[16] = RPMI 5 mM glucose + 10% FBS, 0.0632 µM
[17] = RPMI 5 mM glucose + 10% FBS, 0.19 µM
[18] = RPMI 5 mM glucose + 10% FBS, 0.569 µM
[19] = RPMI 5 mM glucose + 10% FBS, 1.71 µM
[20] = RPMI 5 mM glucose + 10% FBS, 5.12 µM
[21] = RPMI 5 mM glucose + 10% FBS, 15.4 µM
[22] = RPMI 5 mM glucose + 10% FBS, 46.1 µM
[23] = RPMI 5 mM glucose + 10% dialyzed FBS, 0.000781 µM
[24] = RPMI 5 mM glucose + 10% dialyzed FBS, 0.00234 µM
[25] = RPMI 5 mM glucose + 10% dialyzed FBS, 0.00702 µM
[26] = RPMI 5 mM glucose + 10% dialyzed FBS, 0.0211 µM
[27] = RPMI 5 mM glucose + 10% dialyzed FBS, 0.0632 µM
[28] = RPMI 5 mM glucose + 10% dialyzed FBS, 0.19 µM
[29] = RPMI 5 mM glucose + 10% dialyzed FBS, 0.569 µM
[30] = RPMI 5 mM glucose + 10% dialyzed FBS, 1.71 µM
[31] = RPMI 5 mM glucose + 10% dialyzed FBS, 5.12 µM
[32] = RPMI 5 mM glucose + 10% dialyzed FBS, 15.4 µM
[33] = RPMI 5 mM glucose + 10% dialyzed FBS, 46.1 µM

Row | Structure (SMILES) | cell viability [1] | cell viability [2] | cell viability [3] | cell viability [4] | cell viability [5] | cell viability [6] | cell viability [7] | cell viability [8] | cell viability [9] | cell viability [10] | cell viability [11] | cell viability [12] | cell viability [13] | cell viability [14] | cell viability [15] | cell viability [16] | cell viability [17] | cell viability [18] | cell viability [19] | cell viability [20] | cell viability [21] | cell viability [22] | cell viability [23] | cell viability [24] | cell viability [25] | cell viability [26] | cell viability [27] | cell viability [28] | cell viability [29] | cell viability [30] | cell viability [31] | cell viability [32] | cell viability [33]
1 | C[S+](=O)([O-])c1ccc(C(=O)Nc2ccc(Cl)c(-c3ccccn3)c2)c(Cl)c1 | 97.9% | 98.7% | 129% | 116% | 126% | 127% | 131% | 122% | 140% | 126% | 144% | 100% | 117% | 129% | 123% | 126% | 150% | 121% | 122% | 153% | 25.2% | 139% | 104% | 98.5% | 136% | 120% | 131% | 111% | 138% | 142% | 127% | 140% | 134%
2 | COc1cc2nc(N3CCN(C(=O)C4CCCO4)CC3)nc(N)c2cc1OC (stereo not drawn) | 74.1% | 117% | 97% | 118% | 109% | 117% | 122% | 114% | 116% | 119% | 113% |  |  |  |  |  |  |  |  |  |  |  | 84.6% | 125% | 110% | 124% | 134% | 142% | 27.4% | 134% | 162% | 148% | 128%
3 | CCN(CC)CCCCNc1ncc2c(n1)N(C)C(=O)N(c1c(Cl)c(OC)cc(OC)c1Cl)C2 | 99.2% | 110% | 110% | 111% | 119% | 111% | 117% | 114% | 99.2% | 48.3% | 11.9% | 109% | 112% | 117% | 125% | 119% | 106% | 126% | 109% | 104% | 44.4% | 13.2% | 125% | 118% | 107% | 114% | 116% | 116% | 129% | 104% | 101% | 52.3% | 16.9%
